Blank lines part the entries; values can stand above or below the compound they belong to.
Tests used:
alpha2A receptor = biological target: T1, alpha2A receptor (Homo sapiens, UniProt P08913); assay: Receptor Selection and Amplification Technology (RSAT) assay, α2A; assay type: cell-based; settings: relative to brimonidine (standard full agonist), NA = not active at concentrations less than 10 micromolar
T1 construct: expressed in transfected cells; host or cells: NIH-3T3
T1 sequence (P08913 1-465): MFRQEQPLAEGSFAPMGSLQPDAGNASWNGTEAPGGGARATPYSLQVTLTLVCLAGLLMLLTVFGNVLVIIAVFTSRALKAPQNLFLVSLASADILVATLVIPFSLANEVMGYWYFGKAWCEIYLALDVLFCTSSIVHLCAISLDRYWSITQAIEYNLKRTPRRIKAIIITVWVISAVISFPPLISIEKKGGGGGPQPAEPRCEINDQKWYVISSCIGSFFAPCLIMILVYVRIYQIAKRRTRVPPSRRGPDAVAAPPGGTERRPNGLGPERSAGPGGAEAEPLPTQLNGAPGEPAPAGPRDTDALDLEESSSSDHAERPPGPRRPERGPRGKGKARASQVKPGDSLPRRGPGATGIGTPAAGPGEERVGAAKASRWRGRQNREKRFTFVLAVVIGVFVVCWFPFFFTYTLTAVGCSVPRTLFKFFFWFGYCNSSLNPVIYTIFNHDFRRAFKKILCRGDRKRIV
Description: (§1) Receptor Selection and Amplification Technology (RSAT) Assay
(§2) The RSAT assay measures a receptor-mediated loss of contact inhibition that results in selective proliferation of receptor-containing cells in a mixed population of confluent cells. The increase in cell number is assessed with an appropriate transfected marker gene such as β-galactosidase, the activity of which can be easily measured in a 96-well format. Receptors that activate the G protein, Gq, elicit this response. Alpha2 receptors, which normally couple to Gi, activate the RSAT response when coexpressed with a hybrid Gq protein that has a Gi receptor recognition domain, called Gq/i5.
(§3) NIH-3T3 cells are plated at a density of 2×10^6 cells in 15 cm dishes and maintained in Dulbecco's modified Eagle's medium supplemented with 10% calf serum. […] After washing with phosphate-buffered saline, β-galactosidase enzyme activity is determined by adding 200 μl of the chromogenic substrate (consisting of 3.5 mM o-nitrophenyl-β-D-galactopyranoside and 0.5% nonidet P-40 in phosphate buffered saline), incubating overnight at 30° C. and measuring optical density at 420 nm. The absorbance is a measure of enzyme activity, which depends on cell number and reflects a receptor-mediated cell proliferation. […]

alpha2B receptor = biological target: T2, alpha2B receptor (Homo sapiens, UniProt P18089); assay: Receptor Selection and Amplification Technology (RSAT) assay, α2B; assay type: cell-based; settings: relative to brimonidine (standard full agonist), NA = not active at concentrations less than 10 micromolar
T2 construct: expressed in transfected cells; host or cells: NIH-3T3
T2 sequence (P18089 1-450): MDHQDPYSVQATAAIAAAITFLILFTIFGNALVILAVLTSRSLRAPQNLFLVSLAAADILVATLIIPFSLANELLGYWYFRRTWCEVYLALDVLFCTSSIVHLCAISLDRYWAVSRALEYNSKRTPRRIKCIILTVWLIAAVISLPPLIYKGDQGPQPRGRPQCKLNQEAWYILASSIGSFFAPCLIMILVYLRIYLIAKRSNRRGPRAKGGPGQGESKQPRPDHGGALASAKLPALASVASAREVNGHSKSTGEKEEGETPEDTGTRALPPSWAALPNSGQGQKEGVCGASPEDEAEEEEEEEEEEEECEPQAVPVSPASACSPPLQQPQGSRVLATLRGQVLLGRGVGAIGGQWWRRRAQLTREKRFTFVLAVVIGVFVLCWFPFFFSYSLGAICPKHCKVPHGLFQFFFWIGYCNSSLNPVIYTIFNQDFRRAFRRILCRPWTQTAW
Description: as §1, §2, §3

alpha2C receptor = biological target: T3, alpha2C receptor (Homo sapiens, UniProt P18825); assay: Receptor Selection and Amplification Technology (RSAT) assay, α2C; assay type: cell-based; settings: relative to brimonidine (standard full agonist), NA = not active at concentrations less than 10 micromolar
T3 construct: expressed in transfected cells; host or cells: NIH-3T3
T3 sequence (P18825 1-462): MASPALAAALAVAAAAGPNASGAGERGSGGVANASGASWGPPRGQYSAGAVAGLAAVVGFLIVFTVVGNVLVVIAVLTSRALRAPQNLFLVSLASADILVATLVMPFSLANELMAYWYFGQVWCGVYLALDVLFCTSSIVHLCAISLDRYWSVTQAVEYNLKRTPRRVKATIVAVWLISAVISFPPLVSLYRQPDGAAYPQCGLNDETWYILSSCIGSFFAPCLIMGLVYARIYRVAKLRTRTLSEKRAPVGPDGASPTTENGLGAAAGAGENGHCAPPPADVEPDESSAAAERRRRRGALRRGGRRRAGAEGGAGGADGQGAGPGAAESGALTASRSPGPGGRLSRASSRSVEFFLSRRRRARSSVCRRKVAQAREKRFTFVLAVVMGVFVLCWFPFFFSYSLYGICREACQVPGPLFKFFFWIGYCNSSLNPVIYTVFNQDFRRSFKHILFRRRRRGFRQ
Description: as §1, §2, §3

locomotor activity [1] = assay: Sedation model, rats (locomotor/exploratory activity); assay type: in vivo; settings: for rat locomotor activity: 30 min following dosing (FIG. 3)
Description: (§4) The utility of alpha2-adrenergic agonists is limited by a range of side effects, particularly sedation and cardiovascular depression. The sedative activity of the compounds is assessed by measuring their ability to reduce the exploratory activity of mice and rats when placed in a dark chamber 30 min following dosing. The animal's activity is determined automatically by placing it in a digicom analyzer chamber (Omnitech Electronic). These chambers have photocells criss-crossing the box that are broken as the animal moves around. The computer analyzes this movement and records total activity over a 5-min time period. […] This represents greater than a 300-fold margin of safety (FIG. 4).

locomotor activity [2] = assay: Sedation model, mice (locomotor/exploratory activity); assay type: in vivo; settings: oral dose of 3 mg/kg
Description: as §4

Intrinsic activity α2A (alpha2A receptor): 0.9
Intrinsic activity α2B (alpha2B receptor): 1.0
Intrinsic activity α2C (alpha2C receptor): 1.1
Compound: OCC1=CCC[C@@H](Cc2c[nH]c(=S)[nH]2)C1 (single isomer, unassigned) [Compound 5]

Compound: OCC1=CCCC(Cc2c[nH]c(=S)[nH]2)C1 (stereo not drawn) [Compound 1, 4-(3-Hydroxymethyl-cyclohex-3-enylmethyl)-1,3-dihydro-imidazole-2-thione]
sedation / locomotor activity, rats (locomotor activity [1]; general statement (FIG. 3)): does not sedate
rat locomotor activity (locomotor activity [1]; intraperitoneal doses up to at least 3 mg/kg): did not decrease
margin of safety (locomotor activity [1]; non-sedating dose in rats (ip 3 mg/kg, oral 10 mg/kg) versus active dose): ≥ 30 fold
rat locomotor activity (locomotor activity [1]; oral doses up to at least 10 mg/kg): did not decrease

Compound: O=C(CC1CCCC1)OCC1=CCCC(Cc2c[nH]c(=S)[nH]2)C1 (stereo not drawn) [Compound 3, cyclopentyl-acetic acid 5-(2-thioxo-2,3-dihydro-1H-imidazol-4-ylmethyl)-cyclohex-1-enylmethyl ester]
sedation, rats (locomotor activity [1]; oral dose of 3 mg/kg): did not sedate
sedation, mice (locomotor activity [2]): did not sedate

Reference: patent US7390829B2, “Alpha-2 adrenergic agonists” (Allergan, Inc., priority 2005, dated 2008)
